# Reference: PubChem BioAssay AID1963835 (Molecular Pharmacology Branch, DTP, NCI, 2024)
# System: 699152-130-R-J1-PDC complex spheroid viability
# Assay: Anticancer human tumor 699152-130-R-J1-PDC patient-derived pancreatic carcinoma cell line growth inhibition [POLQ]
# Conditions: for IC50: curve of first compound; for viability, T/C: stronger effect = lower value
# Method in brief: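 PDC + HUVEC + MSC complex spheroids; POLQ inhibitors ± partner drugs; top conc. at/near clinical Cmax, else 10 microM (SN-38 1 microM), half-log dilutions; 37 degrees C, 5% CO2.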
# [1] = second compound 0.0316 µM, first compound 0.00316 µM
# [2] = second compound 0.0316 µM, first compound 0.01 µM
# [3] = second compound 0.0316 µM, first compound 0.0316 µM
# [4] = second compound 0.0316 µM, first compound 0.1 µM
# [5] = second compound 0.1 µM, first compound 0.00316 µM
# [6] = second compound 0.1 µM, first compound 0.01 µM
# [7] = second compound 0.1 µM, first compound 0.0316 µM
# [8] = second compound 0.1 µM, first compound 0.1 µM
# [9] = second compound 0.316 µM, first compound 0.00316 µM
# [10] = second compound 0.316 µM, first compound 0.01 µM
# [11] = second compound 0.316 µM, first compound 0.0316 µM
# [12] = second compound 0.316 µM, first compound 0.1 µM
# [13] = second compound 1 µM, first compound 0.00316 µM
# [14] = second compound 1 µM, first compound 0.01 µM
# [15] = second compound 1 µM, first compound 0.0316 µM
# [16] = second compound 1 µM, first compound 0.1 µM
# [17] = second compound 3.16 µM, first compound 0.00316 µM
# [18] = second compound 3.16 µM, first compound 0.01 µM
# [19] = second compound 3.16 µM, first compound 0.0316 µM
# [20] = second compound 3.16 µM, first compound 0.1 µM
# [21] = second compound 10 µM, first compound 0.00316 µM
# [22] = second compound 10 µM, first compound 0.01 µM
# [23] = second compound 10 µM, first compound 0.0316 µM
# [24] = second compound 10 µM, first compound 0.1 µM
# [25] = second compound 0.0316 µM, first compound 0.316 µM
# [26] = second compound 0.0316 µM, first compound 1 µM
# [27] = second compound 0.1 µM, first compound 0.316 µM
# [28] = second compound 0.1 µM, first compound 1 µM
# [29] = second compound 0.316 µM, first compound 0.316 µM
# [30] = second compound 0.316 µM, first compound 1 µM
# [31] = second compound 1 µM, first compound 0.316 µM
# [32] = second compound 1 µM, first compound 1 µM
# [33] = second compound 3.16 µM, first compound 0.316 µM
# [34] = second compound 3.16 µM, first compound 1 µM
# [35] = second compound 10 µM, first compound 0.316 µM
# [36] = second compound 10 µM, first compound 1 µM
# [37] = second compound 0.0316 µM, first compound 3.16 µM
# [38] = second compound 0.0316 µM, first compound 10 µM
# [39] = second compound 0.1 µM, first compound 3.16 µM
# [40] = second compound 0.1 µM, first compound 10 µM
# [41] = second compound 0.316 µM, first compound 3.16 µM
# [42] = second compound 0.316 µM, first compound 10 µM
# [43] = second compound 1 µM, first compound 3.16 µM
# [44] = second compound 1 µM, first compound 10 µM
# [45] = second compound 3.16 µM, first compound 3.16 µM
# [46] = second compound 3.16 µM, first compound 10 µM
# [47] = second compound 10 µM, first compound 3.16 µM
# [48] = second compound 10 µM, first compound 10 µM
# 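Further: spheroids exposed to agents for 7 days before viability reading.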
# 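Wherever viability, T/C is given: percent of DMSO vehicle control viability so 100% = vehicle and 0% = no viable signal.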
smiles,measurement,setting,value
CC[C@@]1(O)C(=O)OCc2c1cc1n(c2=O)Cc2cc3c(CN(C)C)c(O)ccc3nc2-1 + Nc1ccc(C#CCN(C(=O)Cc2ncc(C(F)(F)F)cc2C(F)(F)F)c2ccc(F)cc2)nn1,IC50,second compound 0.0316 µM,> 100 nM
same,IC50,second compound 0.1 µM,> 100 nM
same,IC50,second compound 0.316 µM,> 100 nM
same,IC50,second compound 1 µM,> 100 nM
same,IC50,second compound 3.16 µM,> 100 nM
same,IC50,second compound 10 µM,> 100 nM
same,"viability, T/C","second compound 0.0316 µM, first compound 0.000316 µM",109%
same,"viability, T/C","second compound 0.0316 µM, first compound 0.001 µM",106%
same,"viability, T/C",[1],97.9%
same,"viability, T/C",[2],91.8%
same,"viability, T/C",[3],80.6%
same,"viability, T/C",[4],65.9%
same,"viability, T/C","second compound 0.1 µM, first compound 0.000316 µM",100%
same,"viability, T/C","second compound 0.1 µM, first compound 0.001 µM",108%
same,"viability, T/C",[5],95.3%
same,"viability, T/C",[6],92.1%
same,"viability, T/C",[7],84.4%
same,"viability, T/C",[8],57.7%
same,"viability, T/C","second compound 0.316 µM, first compound 0.000316 µM",99.7%
same,"viability, T/C","second compound 0.316 µM, first compound 0.001 µM",105%
same,"viability, T/C",[9],102%
same,"viability, T/C",[10],90%
same,"viability, T/C",[11],80.1%
same,"viability, T/C",[12],73.2%
same,"viability, T/C","second compound 1 µM, first compound 0.000316 µM",113%
same,"viability, T/C","second compound 1 µM, first compound 0.001 µM",97.8%
same,"viability, T/C",[13],109%
same,"viability, T/C",[14],97%
same,"viability, T/C",[15],82.6%
same,"viability, T/C",[16],69.9%
same,"viability, T/C","second compound 3.16 µM, first compound 0.000316 µM",102%
same,"viability, T/C","second compound 3.16 µM, first compound 0.001 µM",105%
same,"viability, T/C",[17],95.8%
same,"viability, T/C",[18],108%
same,"viability, T/C",[19],85.2%
same,"viability, T/C",[20],62.2%
same,"viability, T/C","second compound 10 µM, first compound 0.000316 µM",109%
same,"viability, T/C","second compound 10 µM, first compound 0.001 µM",119%
same,"viability, T/C",[21],123%
same,"viability, T/C",[22],114%
same,"viability, T/C",[23],108%
same,"viability, T/C",[24],68%
COc1cccc(OCCCN)c1-c1cc(Nc2cnc(C#N)cn2)n[nH]1 + COC1C(OC(N)=O)C(O)C(Oc2ccc3c(O)c(NC(=O)c4ccc(O)c(CC=C(C)C)c4)c(=O)oc3c2C)OC1(C)C,IC50,second compound 0.0316 µM,256 nM
same,IC50,second compound 0.1 µM,524 nM
same,IC50,second compound 0.316 µM,495 nM
same,IC50,second compound 1 µM,297 nM
same,IC50,second compound 3.16 µM,> 1000 nM
same,IC50,second compound 10 µM,> 1000 nM
same,"viability, T/C",[1],92.4%
same,"viability, T/C",[2],91.4%
same,"viability, T/C",[3],57.9%
same,"viability, T/C",[4],63%
same,"viability, T/C",[25],49.7%
same,"viability, T/C",[26],43%
same,"viability, T/C",[5],96.8%
same,"viability, T/C",[6],89.2%
same,"viability, T/C",[7],70.3%
same,"viability, T/C",[8],58.1%
same,"viability, T/C",[27],50.8%
same,"viability, T/C",[28],48.6%
same,"viability, T/C",[9],107%
same,"viability, T/C",[10],83.1%
same,"viability, T/C",[11],67.3%
same,"viability, T/C",[12],55.2%
same,"viability, T/C",[29],55%
same,"viability, T/C",[30],46.1%
same,"viability, T/C",[13],93.7%
same,"viability, T/C",[14],83.2%
same,"viability, T/C",[15],69.2%
same,"viability, T/C",[16],52.3%
same,"viability, T/C",[31],48.4%
same,"viability, T/C",[32],50.8%
same,"viability, T/C",[17],107%
same,"viability, T/C",[18],78.2%
same,"viability, T/C",[19],60.7%
same,"viability, T/C",[20],54.8%
same,"viability, T/C",[33],57.5%
same,"viability, T/C",[34],48.8%
same,"viability, T/C",[21],94.8%
same,"viability, T/C",[22],90.8%
same,"viability, T/C",[23],62.3%
same,"viability, T/C",[24],60.3%
same,"viability, T/C",[35],55%
same,"viability, T/C",[36],46.3%
COc1cc2cc(C(=O)CCC(=O)O)sc2cc1OC + Cc1cccc(N(C)C(=O)C2C(O)CCN2c2nc(C)cc(C(F)(F)F)c2C#N)c1,IC50,second compound 0.0316 µM,> 10000 nM
same,IC50,second compound 0.1 µM,> 10000 nM
same,IC50,second compound 0.316 µM,> 10000 nM
same,IC50,second compound 1 µM,> 10000 nM
same,IC50,second compound 3.16 µM,> 10000 nM
same,IC50,second compound 10 µM,> 10000 nM
same,"viability, T/C",[3],99.4%
same,"viability, T/C",[4],91.8%
same,"viability, T/C",[25],92.6%
same,"viability, T/C",[26],98.7%
same,"viability, T/C",[37],110%
same,"viability, T/C",[38],95.3%
same,"viability, T/C",[7],113%
same,"viability, T/C",[8],108%
same,"viability, T/C",[27],106%
same,"viability, T/C",[28],90.3%
same,"viability, T/C",[39],121%
same,"viability, T/C",[40],93.2%
same,"viability, T/C",[11],93%
same,"viability, T/C",[12],105%
same,"viability, T/C",[29],92.5%
same,"viability, T/C",[30],102%
same,"viability, T/C",[41],114%
same,"viability, T/C",[42],94.9%
same,"viability, T/C",[15],94.8%
same,"viability, T/C",[16],99.4%
same,"viability, T/C",[31],92.1%
same,"viability, T/C",[32],106%
same,"viability, T/C",[43],107%
same,"viability, T/C",[44],107%
same,"viability, T/C",[19],102%
same,"viability, T/C",[20],97.8%
same,"viability, T/C",[33],104%
same,"viability, T/C",[34],105%
same,"viability, T/C",[45],89.1%
same,"viability, T/C",[46],93.3%
same,"viability, T/C",[23],92.2%
same,"viability, T/C",[24],102%
same,"viability, T/C",[35],105%
same,"viability, T/C",[36],96%
same,"viability, T/C",[47],98.9%
same,"viability, T/C",[48],103%
CC1COCCN1c1cc(C2(S(C)(=N)=O)CC2)nc(-c2ccnc3[nH]ccc23)n1 (stereo not drawn) + Cc1cccc(N(C)C(=O)C2C(O)CCN2c2nc(C)cc(C(F)(F)F)c2C#N)c1,IC50,second compound 0.0316 µM,> 10000 nM
same,IC50,second compound 0.1 µM,> 10000 nM
same,IC50,second compound 0.316 µM,> 10000 nM
same,IC50,second compound 1 µM,> 10000 nM
same,IC50,second compound 3.16 µM,> 10000 nM
same,IC50,second compound 10 µM,> 10000 nM
same,"viability, T/C",[3],102%
same,"viability, T/C",[4],95.6%
same,"viability, T/C",[25],90.2%
same,"viability, T/C",[26],99.9%
same,"viability, T/C",[37],81.4%
same,"viability, T/C",[38],64%
same,"viability, T/C",[7],99.8%
same,"viability, T/C",[8],110%
same,"viability, T/C",[27],89.5%
same,"viability, T/C",[28],92.8%
same,"viability, T/C",[39],75.2%
same,"viability, T/C",[40],73.7%
same,"viability, T/C",[11],110%
same,"viability, T/C",[12],91.7%
same,"viability, T/C",[29],102%
same,"viability, T/C",[30],83.5%
same,"viability, T/C",[41],76.5%
same,"viability, T/C",[42],68.8%
same,"viability, T/C",[15],107%
same,"viability, T/C",[16],97.8%
same,"viability, T/C",[31],97.5%
same,"viability, T/C",[32],81.7%
same,"viability, T/C",[43],80.2%
same,"viability, T/C",[44],67.8%
same,"viability, T/C",[19],102%
same,"viability, T/C",[20],97.9%
same,"viability, T/C",[33],99%
same,"viability, T/C",[34],96.3%
same,"viability, T/C",[45],77.5%
same,"viability, T/C",[46],70.8%
same,"viability, T/C",[23],104%
same,"viability, T/C",[24],110%
same,"viability, T/C",[35],103%
same,"viability, T/C",[36],85.8%
same,"viability, T/C",[47],95.1%
same,"viability, T/C",[48],69.8%
